Literature values, collected in US20130296440A1 (CHROMADEX INC., priority 2012, published 2013).
Read-outs that look alike come from different tables or passages of the source.

Key:
H4IIEC3 rat liver cells = details: 100 μM
[1] = for half life t1/2: in blood; for bioavailability: in vivo
PLA2 = details: cultured cells
COX-2 = details: cultured cells
5-LOX = molecular target: T1, 5-LOX (Homo sapiens, UniProt P09917); details: cultured cells
T1 construct: endogenous in cells
T1 sequence (P09917 1-674): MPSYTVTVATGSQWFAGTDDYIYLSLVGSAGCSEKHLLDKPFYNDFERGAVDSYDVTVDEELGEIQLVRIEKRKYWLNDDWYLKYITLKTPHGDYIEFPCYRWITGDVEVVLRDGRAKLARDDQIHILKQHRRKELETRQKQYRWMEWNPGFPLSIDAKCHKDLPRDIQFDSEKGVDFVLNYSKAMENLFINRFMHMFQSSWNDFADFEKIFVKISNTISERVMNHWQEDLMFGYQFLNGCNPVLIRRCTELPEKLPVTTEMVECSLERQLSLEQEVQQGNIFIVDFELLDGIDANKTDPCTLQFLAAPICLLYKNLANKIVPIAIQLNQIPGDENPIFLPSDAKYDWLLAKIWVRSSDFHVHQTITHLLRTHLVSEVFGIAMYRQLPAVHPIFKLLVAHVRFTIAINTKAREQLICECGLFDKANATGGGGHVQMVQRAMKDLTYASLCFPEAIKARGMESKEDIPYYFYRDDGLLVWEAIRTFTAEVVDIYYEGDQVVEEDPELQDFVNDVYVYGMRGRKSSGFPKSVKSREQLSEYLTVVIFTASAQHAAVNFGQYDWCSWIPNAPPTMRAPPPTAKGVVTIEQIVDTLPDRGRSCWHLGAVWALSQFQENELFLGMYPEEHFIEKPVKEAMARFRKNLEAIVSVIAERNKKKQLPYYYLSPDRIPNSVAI

CYP1B1 = molecular target: T2, CYP1B1 (Homo sapiens, UniProt Q16678); details: human recombinant
T2 sequence (Q16678 1-543): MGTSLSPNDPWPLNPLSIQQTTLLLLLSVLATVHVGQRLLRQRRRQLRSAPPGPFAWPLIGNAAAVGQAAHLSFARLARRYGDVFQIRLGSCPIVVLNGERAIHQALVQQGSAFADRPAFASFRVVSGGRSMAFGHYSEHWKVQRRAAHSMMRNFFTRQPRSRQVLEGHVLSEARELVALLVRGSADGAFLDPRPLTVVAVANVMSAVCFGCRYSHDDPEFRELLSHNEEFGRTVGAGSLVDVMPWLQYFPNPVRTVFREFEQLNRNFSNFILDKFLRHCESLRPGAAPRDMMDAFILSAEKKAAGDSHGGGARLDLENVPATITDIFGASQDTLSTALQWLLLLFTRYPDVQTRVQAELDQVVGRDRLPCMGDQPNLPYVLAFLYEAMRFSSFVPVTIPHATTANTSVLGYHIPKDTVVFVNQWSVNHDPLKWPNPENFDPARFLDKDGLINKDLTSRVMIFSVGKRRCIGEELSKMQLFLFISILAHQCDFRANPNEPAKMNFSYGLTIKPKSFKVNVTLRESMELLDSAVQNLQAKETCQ

[2] = mice; 28-day; 160 pound human equivalent doses of approximately 125 mg/day, 1.25 g/day and 12.5 g/day
CYP1A1 = molecular target: T3, CYP1A1 (Homo sapiens, UniProt P04798); details: human recombinant
T3 sequence (P04798 1-512): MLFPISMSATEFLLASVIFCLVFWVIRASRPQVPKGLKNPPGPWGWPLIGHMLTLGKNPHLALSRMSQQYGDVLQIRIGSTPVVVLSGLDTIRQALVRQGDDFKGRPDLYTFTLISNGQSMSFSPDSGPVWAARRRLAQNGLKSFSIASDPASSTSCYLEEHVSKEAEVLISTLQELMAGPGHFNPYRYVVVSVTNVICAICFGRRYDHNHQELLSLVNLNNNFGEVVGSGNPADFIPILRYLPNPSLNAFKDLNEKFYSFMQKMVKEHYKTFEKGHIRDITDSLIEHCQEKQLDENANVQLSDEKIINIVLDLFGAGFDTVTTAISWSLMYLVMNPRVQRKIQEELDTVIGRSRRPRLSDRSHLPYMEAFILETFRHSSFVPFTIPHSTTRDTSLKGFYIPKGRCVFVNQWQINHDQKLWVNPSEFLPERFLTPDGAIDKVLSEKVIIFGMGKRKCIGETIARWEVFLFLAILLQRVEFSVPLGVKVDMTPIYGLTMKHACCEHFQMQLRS

CYP2E1 = CYP2E1 (Homo sapiens, UniProt P05181)
Sequence of CYP2E1 (P05181 whole entry, species assumed): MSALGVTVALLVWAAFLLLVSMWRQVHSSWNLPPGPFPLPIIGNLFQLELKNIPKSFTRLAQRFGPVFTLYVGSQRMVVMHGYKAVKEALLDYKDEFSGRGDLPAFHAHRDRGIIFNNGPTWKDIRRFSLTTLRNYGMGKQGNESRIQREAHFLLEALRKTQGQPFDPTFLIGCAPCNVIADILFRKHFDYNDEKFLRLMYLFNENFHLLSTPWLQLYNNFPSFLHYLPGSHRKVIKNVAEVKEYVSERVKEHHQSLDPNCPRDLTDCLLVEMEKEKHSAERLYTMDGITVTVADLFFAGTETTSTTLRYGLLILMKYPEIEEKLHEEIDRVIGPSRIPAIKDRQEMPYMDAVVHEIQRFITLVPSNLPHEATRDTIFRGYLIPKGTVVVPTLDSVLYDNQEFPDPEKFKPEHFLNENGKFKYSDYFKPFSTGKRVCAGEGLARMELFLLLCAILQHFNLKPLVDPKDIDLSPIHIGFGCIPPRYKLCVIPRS

PPAR-alpha = molecular target: T4, PPAR-alpha (Rattus norvegicus, UniProt P37230); details: for PPAR-alpha activation: luciferase reporter
T4 construct: Using a luciferase reporter gene construct containing the peroxisome proliferator response element promoter region; endogenous in cells; host or cells: H4IIEC3 rat liver cells
T4 sequence (P37230 1-468): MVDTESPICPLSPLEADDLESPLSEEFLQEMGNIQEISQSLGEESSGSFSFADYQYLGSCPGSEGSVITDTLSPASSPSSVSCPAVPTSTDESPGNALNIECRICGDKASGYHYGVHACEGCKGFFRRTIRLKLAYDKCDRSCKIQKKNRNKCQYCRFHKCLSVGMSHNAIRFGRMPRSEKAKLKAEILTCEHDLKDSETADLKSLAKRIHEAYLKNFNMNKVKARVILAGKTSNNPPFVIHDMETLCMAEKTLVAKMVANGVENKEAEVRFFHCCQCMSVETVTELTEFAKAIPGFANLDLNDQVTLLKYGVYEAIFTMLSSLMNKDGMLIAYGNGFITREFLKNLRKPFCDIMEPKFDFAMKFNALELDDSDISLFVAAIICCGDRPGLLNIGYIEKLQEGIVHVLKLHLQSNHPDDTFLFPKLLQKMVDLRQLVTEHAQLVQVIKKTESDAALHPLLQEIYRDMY

rat smooth muscle cells = details: in vitro
[3] = 100 μM, H4IIEC3 rat liver cells

Structure (SMILES)	toxicity to cells (H4IIEC3 rat liver cells)	half life t1/2 [1] [min]	bioavailability [1]	PLA2 activity (PLA2)	COX-2 activity (COX-2)	5-LOX activity (5-LOX)	water solubility	inhibition of CYP1B1 isozyme (CYP1B1)	local or systemic toxicity [2]	inhibition of CYP1A1 isozyme (CYP1A1)	inhibition of CYP2E1 (CYP2E1)	PPAR-alpha activation relative to 100 μM of ciprofibrate (PPAR-alpha; [3]) [fold]	PPAR-alpha activation (PPAR-alpha; [3]) [fold over the control]	PPAR-alpha activation (PPAR-alpha; 300 μM, H4IIEC3 rat liver cells) [fold over the control]	PPAR-alpha activation within a group of similar stilbenes (PPAR-alpha; in a manner similar to ciprofibrate (Rimando 2005))	proliferation of rat smooth muscle cells (rat smooth muscle cells)
Oc1ccc(C=Cc2cc(O)cc(O)c2)cc1 [resveratrol, reference compound]	toxic to cells	10 to 14	poor bioavailability													
COc1cc(/C=C/C(=O)CC(=O)/C=C/c2ccc(O)c(OC)c2)ccc1O [curcumin, (1E,6E)-1,7-Bis(4-hydroxy-3-methoxyphenyl)-1,6-heptadiene-3,5-dione]			poor bioavailability	inhibit	inhibit	inhibit	minimally water soluble									
COc1cc(/C=C/c2ccc(O)cc2)cc(OC)c1 [pterostilbene, trans-3,5-dimethoxy-4′-hydroxystilbene]		74 to 105	orally bioavailable					inhibit	no local or systemic toxicity	inhibit	not	~2	8	14	activated PPAR-alpha	inhibit
